Laboratory results taken from patent US20100068204A1, “4-ARYLOXYQUINOLIN-2(1H)-ONES AS MTOR KINASE AND PI3 KINASE INHIBITORS, FOR USE AS ANTI-CANCER AGENTS” (Wyeth, priority 2008, published 2010).

Tests used:
PI3Kα = PI3Kα (Homo sapiens, UniProt P42336); assay: PI3Kα fluorescence polarization assay; type: biochemical; conditions: 20 μM PIP2, 25 μM ATP
Protocol: The reaction buffer was 20 mM HEPES pH7.5, 2 mM MgCl2, 0.05% CHAPS, and 0.01% βME (added fresh). The substrate solution was 40 μM PIP2 (diC8, Echelon, Salt Lake City Utah cat #P-4508, 1 mM in water) and 50 μM ATP in the reaction buffer. Nunc 384-well black polypropylene fluorescent plates were used for PI3K assays. The assay is run by putting 9.5 μl of freshly diluted enzyme in the reaction buffer per well, adding 0.5 μl of diluted drug or DMSO, and mixing. Then 10 μl of the substrate solution is added to each well to start the reaction. A final concentration of 20 μM PIP2 and 25 μM ATP in the reaction was used. Reactions were allowed to proceed for 30-60 minutes at room temperature. After 30-60 minutes, 20 μl of a solution of 10 nM TAMRA detector (Red detector probe-Echelon) and 2.5 uM of GST-murine GRP (1.5 mg/ml in 17% glycerol) was added per well to stop the reaction. The resulting solution was mixed well and allowed to stand for 90-110 minutes before reading plate. Assay Plates were read on Perkin-Elmer Envision plate readers with appropriate filters for Tamra [BODIPY-TMRI(1,3,4,5)P4]. Data obtained were used to calculate enzymatic activity and enzyme inhibition by inhibitor compounds. It is important to keep Red probe solutions dark. This procedure is adapted from Echelon Biosciences Inc procedure for their PI3-Kinase fluorescence polarization activity Assay kit Product number K-1100.

[1] = test system: LNCap prostate tumor cells; assay: In vitro cell growth assay (MTS), LNCap; type: cell-based, human; conditions: Homo sapiens, LNCaP, 72 h, three days after drug treatment
Protocol: (§1) Cell lines used were human adenocarcinoma (LoVo), […], prostate (LNCap), breast (MDA468, MCF7), colon (HCT116), renal (HTB44 A498), and ovarian (OVCAR3) tumor cell lines. The tumor cells were plated in 96-well culture plates at approximately 3000 cells per well. One day following plating, various concentrations of inhibitors in DMSO were added to cells (final DMSO concentration in cell assays was 0.25%). Three days after drug treatment, viable cell densities were determined by cell mediated metabolic conversion of the dye MTS, a well-established indicator of cell proliferation in vitro. Cell growth assays were performed using kits purchased from Promega Corporation (Madison, Wis.), following the protocol provided by the vendor. Measuring absorbance at 490 nm generated MTS assay results. Compound effect on cell proliferation was assessed relative to untreated control cell growth.

[2] = test system: MDA468 breast tumor cells; assay: In vitro cell growth assay (MTS), MDA468; type: cell-based, human; conditions: Homo sapiens, 72 h, three days after drug treatment
Protocol: as §1

human TOR (FLAG-TOR) = human TOR (FLAG-TOR) (Homo sapiens, UniProt P42345); assay: mTOR enzyme assay (DELFIA format, purified enzyme); type: biochemical; conditions: 800 ng/ml FLAG-TOR, 100 μM ATP, 1.25 μM His6-S6K; read-out: mTOR Kinase IC50

PI3Kα, sequence (P42336 whole entry, species assumed): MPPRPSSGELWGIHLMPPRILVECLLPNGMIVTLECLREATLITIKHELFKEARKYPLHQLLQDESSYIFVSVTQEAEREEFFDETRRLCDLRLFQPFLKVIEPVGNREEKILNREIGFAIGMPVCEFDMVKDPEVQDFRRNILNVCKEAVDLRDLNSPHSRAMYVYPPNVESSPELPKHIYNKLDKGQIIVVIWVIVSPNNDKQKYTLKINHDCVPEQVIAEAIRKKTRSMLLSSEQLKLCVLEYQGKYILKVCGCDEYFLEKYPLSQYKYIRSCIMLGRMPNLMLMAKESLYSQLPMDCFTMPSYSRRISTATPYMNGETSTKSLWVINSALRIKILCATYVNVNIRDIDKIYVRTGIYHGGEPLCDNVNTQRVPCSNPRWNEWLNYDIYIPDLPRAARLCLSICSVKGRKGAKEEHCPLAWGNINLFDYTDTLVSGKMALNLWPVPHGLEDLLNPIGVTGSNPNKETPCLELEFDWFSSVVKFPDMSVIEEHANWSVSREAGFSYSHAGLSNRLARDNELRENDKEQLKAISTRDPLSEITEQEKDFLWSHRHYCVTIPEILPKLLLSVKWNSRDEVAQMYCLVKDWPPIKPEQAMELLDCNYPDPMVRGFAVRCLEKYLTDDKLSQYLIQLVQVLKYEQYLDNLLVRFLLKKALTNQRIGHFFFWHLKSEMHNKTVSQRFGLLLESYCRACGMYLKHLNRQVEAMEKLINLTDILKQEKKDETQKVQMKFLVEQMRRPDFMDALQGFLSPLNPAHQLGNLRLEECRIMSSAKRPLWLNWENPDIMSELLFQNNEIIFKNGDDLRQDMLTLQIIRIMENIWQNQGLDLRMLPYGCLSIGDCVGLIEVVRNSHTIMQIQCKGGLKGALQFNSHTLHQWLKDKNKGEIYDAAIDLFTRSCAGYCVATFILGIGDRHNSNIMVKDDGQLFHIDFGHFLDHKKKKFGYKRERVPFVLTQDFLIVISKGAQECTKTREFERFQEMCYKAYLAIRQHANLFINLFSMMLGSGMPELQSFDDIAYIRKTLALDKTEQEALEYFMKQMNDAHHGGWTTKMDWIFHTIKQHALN
PI3Kα, sequence (P27986 whole entry partner, species assumed): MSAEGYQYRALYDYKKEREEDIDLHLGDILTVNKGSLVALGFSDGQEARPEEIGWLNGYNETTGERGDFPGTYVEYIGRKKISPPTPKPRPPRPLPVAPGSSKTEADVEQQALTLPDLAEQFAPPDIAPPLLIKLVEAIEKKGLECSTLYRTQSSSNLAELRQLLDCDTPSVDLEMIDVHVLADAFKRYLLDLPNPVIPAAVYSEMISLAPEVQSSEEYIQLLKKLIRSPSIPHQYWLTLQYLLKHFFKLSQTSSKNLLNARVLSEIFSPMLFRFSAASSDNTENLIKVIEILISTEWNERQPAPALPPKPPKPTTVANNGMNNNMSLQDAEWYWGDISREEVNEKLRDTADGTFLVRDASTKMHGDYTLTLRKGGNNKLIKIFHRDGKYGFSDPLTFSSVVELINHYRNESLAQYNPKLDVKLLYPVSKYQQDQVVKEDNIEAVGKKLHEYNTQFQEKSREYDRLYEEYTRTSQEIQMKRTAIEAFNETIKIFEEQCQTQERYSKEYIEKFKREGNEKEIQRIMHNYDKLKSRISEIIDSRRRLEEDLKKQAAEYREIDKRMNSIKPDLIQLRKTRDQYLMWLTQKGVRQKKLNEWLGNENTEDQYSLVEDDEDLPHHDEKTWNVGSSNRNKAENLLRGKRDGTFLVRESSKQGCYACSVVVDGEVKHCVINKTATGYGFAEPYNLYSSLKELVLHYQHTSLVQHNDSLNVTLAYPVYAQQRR

Row | Structure (SMILES) | IC50 (PI3Kα) | IC50 [1] | IC50 [2] | IC50 (human TOR (FLAG-TOR))
1 | O=c1cc(Oc2cccc(-c3cccs3)c2)c2ccccc2[nH]1 | 2.69 µM | > 60 µM | 3.8 µM | > 20 µM
2 | CS(=O)(=O)Nc1cccc(-c2cccc(Oc3cc(=O)[nH]c4ccccc34)c2)c1 | 3.55 µM | 6.5 µM | 18 µM | 0.58 µM
3 | O=c1cc(Oc2cccc(-c3ccnc(N4CCNCC4)c3)c2)c2ccccc2[nH]1 | 15 µM | 9 µM | 8.5 µM | 0.55 µM
4 | COc1ncccc1CNc1cccc(Oc2cc(=O)[nH]c3ccccc23)c1 | 6.74 µM | 8.5 µM | 60 µM | 0.4 µM
5 | COc1cnc(OC)c(CNc2cccc(Oc3cc(=O)[nH]c4ccccc34)c2)c1 | 1.93 µM | 9 µM | 15 µM | 0.51 µM
6 | COc1ccc(CNc2cccc(Oc3cc(=O)[nH]c4ccccc34)c2)cn1 | 4.07 µM | 4.1 µM | 12 µM | 0.31 µM
7 | CN(C)C/C=C/C(=O)Nc1cccc(-c2cccc(Oc3cc(=O)[nH]c4ccccc34)c2)c1 | 12 µM | 4 µM | 8 µM | 0.14 µM
8 | O=c1cc(Oc2cccc(NCc3ccccc3N3CCOCC3)c2)c2ccccc2[nH]1 | 5.62 µM | 9 µM | 24 µM | 0.33 µM
9 | CC(Nc1cccc(Oc2cc(=O)[nH]c3ccccc23)c1)c1cccnc1 (stereo not drawn) | 3.58 µM | 3.3 µM | 11 µM | 0.19 µM
10 | CC(Nc1cccc(Oc2cc(=O)[nH]c3ccccc23)c1)c1ccncc1 (stereo not drawn) | 7.52 µM | 3.1 µM | 11 µM | 0.14 µM
11 | O=c1cc(Oc2cccc(NCCc3cccnc3)c2)c2ccccc2[nH]1 | > 10 µM | 4 µM | 11.5 µM | 0.12 µM
12 | O=c1cc(Oc2cccc(NC3CCN(Cc4ccncc4)CC3)c2)c2ccccc2[nH]1 | > 10 µM | 6.4 µM | 31 µM | 0.15 µM
13 | O=c1cc(Oc2cccc(NC3CCN(Cc4ccccn4)CC3)c2)c2ccccc2[nH]1 | > 10 µM | 6.5 µM | 19 µM | 0.19 µM
14 | O=c1cc(Oc2cccc(-c3ccc(NC4CCN(Cc5ccncc5)CC4)cc3)c2)c2ccccc2[nH]1 | > 10 µM | 6.7 µM | 13 µM | 0.12 µM
15 | O=c1cc(Oc2cccc(-c3ccc(NC4CCN(Cc5ccccn5)CC4)cc3)c2)c2ccccc2[nH]1 | > 10 µM | 5.2 µM | 11 µM | 0.11 µM
16 | CCN1CCCC(Nc2ccc(-c3cccc(Oc4cc(=O)[nH]c5ccccc45)c3)cc2)C1 (stereo not drawn) | 8 µM | 3.9 µM | 10 µM | 0.31 µM
17 | O=c1cc(Oc2cccc(-c3ccc(NC4CCNCC4)cc3)c2)c2ccccc2[nH]1 | > 10 µM | 2.3 µM | 3.8 µM | 0.09 µM
18 | O=c1cc(Oc2cccc(-c3ccc(Cl)nc3)c2)c2ccccc2[nH]1 | > 10 µM | > 60 µM | > 60 µM | > 20 µM
19 | O=c1cc(Oc2cccc(NCc3cnc4ccccc4c3)c2)c2ccccc2[nH]1 | > 10 µM | > 60 µM | 60 µM | 0.06 µM
20 | CC(C)(C)OC(=O)n1ccc2cc(CNc3cccc(Oc4cc(=O)[nH]c5ccccc45)c3)cnc21 | 11.8 µM | 11.5 µM | 60 µM | 4.5 µM
21 | O=c1cc(Oc2cccc(NCc3cnc4[nH]ccc4c3)c2)c2ccccc2[nH]1 | 3.42 µM | 4.9 µM | 13 µM | 0.12 µM
22 | CN(C)c1ncccc1CNc1cccc(Oc2cc(=O)[nH]c3ccccc23)c1 | > 10 µM | 5 µM | 12 µM | 0.31 µM
23 | CN(C)c1ccc(CNc2cccc(Oc3cc(=O)[nH]c4ccccc34)c2)cn1 | 4.55 µM | > 60 µM | > 60 µM | 0.16 µM
24 | Nc1ccc(CNc2cccc(Oc3cc(=O)[nH]c4ccccc34)c2)cn1 | 7.16 µM | 4 µM | 8 µM | 0.11 µM
